Assays:
[1] = test system: MSCs; experiment: Stress inducers/inhibitors: Jagged1 expression and ROS production in MSCs; format: cell-based, mouse
From the text: Next, which signaling pathway is responsible for Jagged1 induction after chemotherapy in osteoblast lineage cells was investigated. Chemotherapy generates many stress responses in cells, including endoplasmic reticulum stress (ER stress), and oxidative stress. Some of the stress conditions have been associated with the regulation of Jagged1 expression (Paul et al., 2014). Several treatments were used to mimic or inhibit these stress responses and then Jagged1 mRNA and protein levels were analyzed within the cells.
293T, H29-Clone #7, MC3T3-E1 Clone #4(denoted as MC3T3 for abbreviation thereafter), MCF7TR, mouse mesenchymal stromal cell (MSC, isolated from BALB/c), 4T1.2, SCP28, SCP28-Vector and -Jagged1 cells, SCP28, RAW264.7, and SUM1315-M1B1 cells were cultured according to American Type Culture Collection instructions and the inventors' previous studies (Ell et al., 2013; Ren et al., 2008; Sethi et al., 2011; Zheng et al., 2014). MSC cells were derived previously and were cultured in DMEM supplemented with 10% FBS, 30 ng/ml bFGF, 100 U/ml penicillin, and 100 μg/ml streptomycin (Ren et al., 2008). All plasmids were transfected into different cell lines using Lipofectamine 2000 following the manufacturer's manual (Life Technologies, CA, USA). To generate stable cell lines, a pLEX-MCS based lentivirus vector or a pMSCV-hygro based retrovirus vector was used in our study. Lentiviruses were packaged in HEK293T cells while retroviruses were packaged by using H29 cell line. Conditional media from these packaging cells containing viruses were collected 2 days and 3 days after transfection. Recipient cell lines were exposed to conditional media containing viruses supplemented with 2 μg/mL Polybrene for 48 h. Infected cells were selected with puromycin or hygromycin to generate stable expressing cell lines. 293T and H29clone #7 are cell lines from female humans. All other cancer cell lines are breast cancer cell lines from either female human or mouse.

[2] = test system: Jagged1 expression in osteoblast cells; experiment: Jagged1/Alp immunostaining of hind limb bones after cisplatin; format: in vivo, nude mice; details: 48 hours after treatment
Method: FIG. 5. Chemotherapy induces Jagged1 expression in osteoblast lineage cells. (A) Jagged1 mRNA expression in osteoblast MC3T3-E1-Clone #4 osteoblast cells and mesenchymal stem cells (MSC), HPMECL endothelial cells (endo), RAW264.7 pre-osteoclast cells, and SCP28 and SUM1315-M1B1 breast tumor cells 48 hr post-treatment with 25 nM paclitaxel or 10 μM cisplatin. (B) Athymic nude mice were i.v. injected with PBS or cisplatin and euthanized 48 hr later. Hind limb bones were collected for IF staining against Alp (green) and Jagged1 (red). Nuclei were counter-stained with DAPI (blue). (C-E) Athymic nude mice were treated with either PBS or cisplatin on Day 0. […] BLI imaging and quantification of BLI signal at Day 4. […]
To confirm this finding in vivo, female nude mice were treated with either PBS or cisplatin. […] In the PBS control group, Jagged1-positive cells were rarely detected, and mostly co-localizing with ALP-positive osteoblasts.
Hindlimb bones were excised from mice at the end point of each experiment, immediately after the last BLI time point. […] For quantitative analysis of lesion area, a 10× objective was used to focus on the tumor region of interest and images were acquired using the AxioCamICc3 camera set to an exposure of around 100 ms. Osteoclast number was assessed as multinucleated TRAP+ cells and reported as number/field. […]

[3] = test system: MCF7, SCP28 and SUM1315-M1B1; experiment: Bone metastatic seeding after cisplatin pre-treatment (IIA injection, BLI); format: in vivo, athymic nude mice; details: cisplatin one day before tumor cell injection, 4 days after injection
Method: FIG. 5. Chemotherapy induces Jagged1 expression in osteoblast lineage cells. (A) Jagged1 mRNA expression in osteoblast MC3T3-E1-Clone #4 osteoblast cells and mesenchymal stem cells (MSC), HPMECL endothelial cells (endo), RAW264.7 pre-osteoclast cells, and SCP28 and SUM1315-M1B1 breast tumor cells 48 hr post-treatment with 25 nM paclitaxel or 10 μM cisplatin. (B) Athymic nude mice were i.v. injected with PBS or cisplatin and euthanized 48 hr later. Hind limb bones were collected for IF staining against Alp (green) and Jagged1 (red). Nuclei were counter-stained with DAPI (blue). (C-E) Athymic nude mice were treated with either PBS or cisplatin on Day 0. One day after the pre-treatment, MCF7 (C), SUM1315-M1B1 (D) or SCP28 (E) cells were delivered locally to the hind limbs of these mice by IIA injection. BLI imaging and quantification of BLI signal at Day 4. (F) Mice from experiment in E were euthanized after BLI imaging at Day 4. Hind limbs were fixed and processed for IF imaging of GFP-expressing tumor cells (green) and ALP positive osteoblasts (red). Size bar: 80 μm. In A: n=3. *p<0.05 by Student's t-test. In C-E: n=5. *p<0.05 by Student's t-test. #: statistically insignificant.
To directly test the effect of increased Jagged1 expression in osteoblasts on bone metastasis seeding and progression, two models were utilized. […]

`N.N.[Cl][Pt][Cl]` [cisplatin] was tested, and the “ROS production in MSCs” value [1] was “induced ROS production”, the “Jagged1 expression (immunostaining, Alp positive cells)” value [2] was “much stronger Jagged1 expression” and the “bone metastatic seeding (BLI)” value [3] was “significant increase”.
